# Earlier results in US20240050377A1, “ORAL SOLID CANNABINOID OIL COMPOSITION FOR TREATING CENTRAL NERVOUS SYSTEM DISORDERS” (SOCIETE DES PRODUITS NESTLE S.A., priority 2021, published 2024).
# Several values for one entry are separate records, joined by “and”; a condition that tells them apart may be missing. Equal entries are not always repeated. Where two headings read alike, the source gives them in different places.
# How the values were obtained:
# [1] = humans
# [2] = low pH of the stomach; simulated gastric fluid
smiles,measurement,setting,value
"C=C(C)[C@@H]1CCC(C)=C[C@H]1c1c(O)cc(CCCCC)cc1O [CBD, cannabidiol]",mean half-life,[1]; aerosol administration,1.1 to 2.4 h
same,mean half-life,[1]; oral lipid capsule administration,2.95 h and 3.21 h
same,mean half-life,[1]; single oral administration,1.09 to 1.97 h
same,degradation in stomach environment,[2],high levels of CBD degradation
